Laboratory results: patent US20220160601A1, “Sunscreen Compositions” (Curie Co. Inc., priority 2020, published 2022)

Legend:
[1] = UV/Vis spectral properties (Cary-50 spectrophotometer); type: physicochemical; settings: for absorption spectra, regions encompassed / UVA and UVB absorption properties compared to oxybenzone: acetonitrile; for absorption spectra, regions encompassed: 5 mM (N-Boc-Imine-6 also 0.05 mM), compared to oxybenzone, FIG. 3; for UVA and UVB absorption properties compared to oxybenzone: 5 mM or 0.05 mM, FIG. 1
Description: Imine-1, Imine-2, and Imine-3 were synthesized, purified, and isolated (see above). All three compounds were separately dissolved in acetonitrile to a final concentration of 5 mM (FIG. 1) or 0.05 mM (FIG. 1, inset) and analyzed by UV/Vis (Cary-50 Spectrophotomer). The spectral properties were compared to oxybenzone in acetonitrile.
Carbamate-1, first described in U.S. Pat. No. 5,490,980A, was synthesized, purified, and isolated (see above). Carbamate-1 was dissolved in acetonitrile to a final concentration of 0.05 mM and analyzed by UV/Vis (Cary-50 Spectrophotomer). The spectral properties were compared to oxybenzone in acetonitrile at a final concentration of 0.05 mM.
Imine-4, Imine-5, and N-Boc-Imine-6 were synthesized, purified, and isolated (see above). All three compounds were separately dissolved in acetonitrile to a final concentration of 5 mM (FIG. 3) and analyzed by UV/Vis (Cary-50 Spectrophotomer). N-Boc-Imine-6 was diluted in acetonitrile to a final concentration of 0.05 mM (FIG. 3, inset) and analyzed by UV/Vis. […] Spectral properties were compared to oxybenzone in acetonitrile at the same concentration.
To understand the solution stability of the Boc-protected imines in protic solvent, N-Boc-Imine-6 was prepared in ethanol in the presence of catalytic glacial acetic acid. Briefly, to a solution of oxybenzone (0.10 g, 0.438 mmol, 1 eq) and N-Boc-1,6-hexanediamine (0.094 g, 0.43 mmol, 1 eq) in ethanol (0.3 mL) was added catalytic glacial acetic acid (1 μL). The reaction mixture was agitated at 900 rpm at 70° C. for 16 hr and monitored by LCMS. […] The reaction was then diluted in ethanol to final concentration of 0.04 mM and analyzed by UV/Vis spectroscopy.
N-Boc-Imine-8 and Imine-8 was synthesized, purified, and isolated (see above). N-Boc-Imine-8 and Imine-8 were dissolved in ethanol to a final concentration of 0.032 mM and 8 mM, respectively (FIG. 6) and analyzed by UV/Vis. (Cary-50 Spectrophotomer). Spectral properties were compared to sulisobenzone in ethanol at similar concentration.
Imine-10 was first dissolved in methyl tert-butyl ether and then diluted in ethanol to a final concentration of 5 mM and 0.04 mM (FIG. 7) and analyzed by UV/Vis. (Cary-50 Spectrophotomer). Spectral properties were compared to oxybenzone at similar concentration.

[2] = Solution stability of Boc-protected imine in protic solvent (ethanol); type: physicochemical; settings: 70° C., catalytic glacial acetic acid, LCMS and UV/Vis
Description: To understand the solution stability of the Boc-protected imines in protic solvent, N-Boc-Imine-6 was prepared in ethanol in the presence of catalytic glacial acetic acid. Briefly, to a solution of oxybenzone (0.10 g, 0.438 mmol, 1 eq) and N-Boc-1,6-hexanediamine (0.094 g, 0.43 mmol, 1 eq) in ethanol (0.3 mL) was added catalytic glacial acetic acid (1 μL). The reaction mixture was agitated at 900 rpm at 70° C. for 16 hr and monitored by LCMS. Full reaction of the starting material to a single product peak was observed by LCMS indicating completion. The reaction was then diluted in ethanol to final concentration of 0.04 mM and analyzed by UV/Vis spectroscopy. […] Additionally, the Boc-protecting group remained intact throughout the reaction and UV/Vis analysis.

With COc1ccc(/C(=N/CCCCCCNC(=O)OC(C)(C)C)c2ccccc2)c(O)c1 [N-Boc-Imine-6] the “absorption spectra, regions encompassed” value [1] was “encompassed the UVA-1, UVA-2, and UVB regions as well as the visible region of the spectrum (greater than 400 nm)”, the “absorption, regions encompassed” value ([1]; ethanol, 0.04 mM, FIG. 4) was “encompasses the UVA and UVB regions as well as the visible region of the spectrum (greater than 400 nm)” and the “solution stability without reversion to the starting ketone and amine” value [2] was “stable over 24 hours”.
For COc1ccc(/C(=N/c2ccccc2)c2ccccc2)c(O)c1 [Imine-2], the “UVA and UVB absorption properties compared to oxybenzone” value [1] was “improved both UVA-1, UVA-2, and UVB absorption properties”.
With COc1ccc(/C(=N/Cc2ccccc2)c2ccccc2)c(O)c1 [Imine-1] the “UVA and UVB absorption properties compared to oxybenzone” value [1] was “improved both UVA-1, UVA-2, and UVB absorption properties”.
With COc1cc(O)c(/C(=N\CCCCCCN)c2ccccc2)cc1S(=O)(=O)O [Imine-8] the “UVA and UVB absorption properties compared to sulisobenzone” value ([1]; ethanol, N-Boc-Imine-8 0.032 mM, Imine-8 8 mM, FIG. 6) was “retained absorbance in the UVB region and extended absorbance into the UVA region”.
In the case of COc1ccc(/C(=N/C(CCC(N)=O)C(=O)O)c2ccccc2)c(O)c1 (stereo not drawn) [Imine-5], the “absorption spectra, regions encompassed” value [1] is reported as “encompassed the UVA-1, UVA-2, and UVB regions as well as the visible region of the spectrum (greater than 400 nm)”.
In the case of COc1ccc(/C(=N/O)c2ccccc2)c(O)c1 [Imine-3], the “UVA and UVB absorption properties compared to oxybenzone” value [1] is reported as “loss in the UVA blocking and reduction in UVB blocking”.
In the case of CCCCCCOC(=O)c1ccccc1/C(=N/CCCCCCN)c1cccc(N(CC)CC)c1O [Imine-9], the “shift of the absorbance spectra” value ([1]; data not shown) is reported as “red shift of the absorbance spectra, which extends to the visible region”.
